Patent US20170298055A1, “sGC STIMULATORS” (IRONWOOD PHARMACEUTICALS, INC., priority 2014, published 2017)

Target: T1, soluble guanylate cyclase (sGC) (Homo sapiens, UniProt Q02108+Q02153)
T1 construct: endogenously expressing soluble guanylate cyclase (sGC); endogenous in cells; host or cells: HEK293
T1 sequence (Q02153 1-619): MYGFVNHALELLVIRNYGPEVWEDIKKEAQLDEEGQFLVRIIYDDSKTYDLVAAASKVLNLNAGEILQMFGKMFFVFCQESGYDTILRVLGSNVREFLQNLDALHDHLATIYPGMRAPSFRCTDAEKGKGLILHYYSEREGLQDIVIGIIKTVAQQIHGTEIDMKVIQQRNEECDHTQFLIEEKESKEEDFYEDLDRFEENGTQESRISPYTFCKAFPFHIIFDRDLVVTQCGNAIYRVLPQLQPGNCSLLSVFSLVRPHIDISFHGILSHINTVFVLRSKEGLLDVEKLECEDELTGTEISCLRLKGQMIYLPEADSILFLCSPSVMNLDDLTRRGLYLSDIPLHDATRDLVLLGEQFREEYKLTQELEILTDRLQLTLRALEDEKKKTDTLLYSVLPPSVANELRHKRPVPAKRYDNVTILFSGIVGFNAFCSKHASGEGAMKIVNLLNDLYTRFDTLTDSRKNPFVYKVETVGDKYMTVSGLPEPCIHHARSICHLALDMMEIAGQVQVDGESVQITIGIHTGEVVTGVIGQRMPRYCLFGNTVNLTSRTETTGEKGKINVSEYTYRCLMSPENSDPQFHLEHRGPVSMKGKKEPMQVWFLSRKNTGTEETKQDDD
T1 sequence (Q02108 1-690): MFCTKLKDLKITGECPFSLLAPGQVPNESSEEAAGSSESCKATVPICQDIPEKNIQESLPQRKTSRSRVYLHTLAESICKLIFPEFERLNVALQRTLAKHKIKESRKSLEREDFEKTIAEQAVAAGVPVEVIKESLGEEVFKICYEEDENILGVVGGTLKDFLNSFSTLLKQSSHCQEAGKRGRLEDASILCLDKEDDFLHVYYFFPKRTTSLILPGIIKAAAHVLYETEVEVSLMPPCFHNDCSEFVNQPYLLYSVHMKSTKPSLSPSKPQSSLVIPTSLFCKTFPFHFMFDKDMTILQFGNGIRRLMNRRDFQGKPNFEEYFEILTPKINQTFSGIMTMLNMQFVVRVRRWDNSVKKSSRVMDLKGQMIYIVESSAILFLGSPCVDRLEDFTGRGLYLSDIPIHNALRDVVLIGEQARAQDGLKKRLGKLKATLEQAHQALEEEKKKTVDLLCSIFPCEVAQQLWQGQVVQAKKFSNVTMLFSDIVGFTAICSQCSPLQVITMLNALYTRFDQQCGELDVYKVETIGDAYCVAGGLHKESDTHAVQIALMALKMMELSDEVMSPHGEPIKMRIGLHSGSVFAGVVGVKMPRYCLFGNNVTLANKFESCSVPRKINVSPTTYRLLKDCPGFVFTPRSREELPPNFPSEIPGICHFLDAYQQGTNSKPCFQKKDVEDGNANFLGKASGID
Test: sGC-HEK-cGMP assay, LC/MS detection, updated conditions with DETA-NONOate (Example 2B)
Type: cell-based
Details: read-out: sGC_HEK_LCMS EC50/IC50 Abs (Norm) (nM) Binned
Method: Human embryonic kidney cells (HEK293), endogenously expressing soluble guanylate cyclase (sGC), were used to evaluate the activity of test compounds. Compounds stimulating the sGC enzyme should cause an increase in the intracellular concentration of cGMP. HEK 293 cells were seeded in Dulbecco's Modification of Eagle's Medium supplemented with fetal bovine serum (10% final) and penicillin (100 U/mL)/streptomycin (100 μg/mL) in a 50 μL volume at a density of 1.5×10^4 cells/well in a poly-D-lysine coated 384 well flat bottom plate. Cells were incubated overnight at 37° C. in a humidified chamber with 5% CO2. Medium was aspirated and cells were washed with 1× Hank's Buffered Saline Salt Solution (50 μL). Cells were then incubated for 15 minutes at 37° C. with 50 μL of a 0.5 mM 3-isobutyl-1-methylxanthine (IBMX) solution. Test article and Diethylenetriamine NONOate (DETA-NONOate) solutions (x μM concentration for test article solution and 10 μM concentration for DETA-NONOate solution; wherein x is one of the following concentrations);
were then added to the assay mixture and the resulting mixture incubated at 37° C. for 20 minutes. […]
cGMP concentrations were determined from each sample using the LCMS conditions below (Table 2B) and calculated standard curve. […]

Row | Compound | EC50 [nM]
1 | OCCOc1nc(-c2cc(-c3ccon3)n(Cc3ccccc3F)n2)ncc1F [Compound I-1] | 100 to 1000
2 | CN(C)CCOc1nc(-c2cc(-c3ccon3)n(Cc3ccccc3F)n2)ncc1F [Compound I-2] | > 1000
